# Source: patent US10670605B2, “Cysteine reactive probes and uses thereof” (The Scripps Research Institute, priority 2015, dated 2020)
# “And” between values parts separate entries of the source, which are not always exact repeats. Identical values can stand only once.
# Assays:
# [1] = biological target: T1, ACAT1 C413 (P24752) (Homo sapiens, UniProt P24752); test: Competitive isoTOP-ABPP, cell lysates; format: binding
# T1 sequence (P24752 34-427): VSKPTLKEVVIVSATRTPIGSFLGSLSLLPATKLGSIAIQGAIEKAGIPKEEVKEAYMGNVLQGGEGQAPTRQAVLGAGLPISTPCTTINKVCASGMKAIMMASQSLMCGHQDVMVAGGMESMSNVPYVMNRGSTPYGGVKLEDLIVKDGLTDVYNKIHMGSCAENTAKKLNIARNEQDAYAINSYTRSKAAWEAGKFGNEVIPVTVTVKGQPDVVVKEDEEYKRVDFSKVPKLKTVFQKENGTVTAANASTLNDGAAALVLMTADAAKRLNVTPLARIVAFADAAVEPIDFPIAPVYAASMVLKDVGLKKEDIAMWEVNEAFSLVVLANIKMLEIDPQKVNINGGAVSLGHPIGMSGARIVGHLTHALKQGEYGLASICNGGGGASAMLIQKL
# [2] = biological target: T2, cysteines in MDA-MB-231 and Ramos cells (Homo sapiens, UniProt Q9UMS0); test: Competitive isoTOP-ABPP in situ (fragment-treated cells); format: cell-based; conditions: 200 μM, insitu
# T2 sequence (Q9UMS0 10-254): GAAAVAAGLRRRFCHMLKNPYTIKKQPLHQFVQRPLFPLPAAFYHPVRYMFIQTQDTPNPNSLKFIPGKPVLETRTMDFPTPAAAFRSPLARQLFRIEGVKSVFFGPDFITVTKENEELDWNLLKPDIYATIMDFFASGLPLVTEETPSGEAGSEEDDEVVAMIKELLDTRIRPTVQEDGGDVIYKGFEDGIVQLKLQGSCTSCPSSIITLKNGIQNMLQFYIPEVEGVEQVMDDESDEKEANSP
# [3] = biological target: cysteines in MDA-MB-231 and Ramos cells (Homo sapiens, UniProt P12268); test: as above; format: cell-based; conditions: 200 μM, insitu
# [4] = biological target: T3, cysteines in MDA-MB-231 and Ramos cells (Homo sapiens, UniProt Q09161); test: as above; format: cell-based; conditions: 200 μM, insitu
# T3 sequence (Q09161 1-790): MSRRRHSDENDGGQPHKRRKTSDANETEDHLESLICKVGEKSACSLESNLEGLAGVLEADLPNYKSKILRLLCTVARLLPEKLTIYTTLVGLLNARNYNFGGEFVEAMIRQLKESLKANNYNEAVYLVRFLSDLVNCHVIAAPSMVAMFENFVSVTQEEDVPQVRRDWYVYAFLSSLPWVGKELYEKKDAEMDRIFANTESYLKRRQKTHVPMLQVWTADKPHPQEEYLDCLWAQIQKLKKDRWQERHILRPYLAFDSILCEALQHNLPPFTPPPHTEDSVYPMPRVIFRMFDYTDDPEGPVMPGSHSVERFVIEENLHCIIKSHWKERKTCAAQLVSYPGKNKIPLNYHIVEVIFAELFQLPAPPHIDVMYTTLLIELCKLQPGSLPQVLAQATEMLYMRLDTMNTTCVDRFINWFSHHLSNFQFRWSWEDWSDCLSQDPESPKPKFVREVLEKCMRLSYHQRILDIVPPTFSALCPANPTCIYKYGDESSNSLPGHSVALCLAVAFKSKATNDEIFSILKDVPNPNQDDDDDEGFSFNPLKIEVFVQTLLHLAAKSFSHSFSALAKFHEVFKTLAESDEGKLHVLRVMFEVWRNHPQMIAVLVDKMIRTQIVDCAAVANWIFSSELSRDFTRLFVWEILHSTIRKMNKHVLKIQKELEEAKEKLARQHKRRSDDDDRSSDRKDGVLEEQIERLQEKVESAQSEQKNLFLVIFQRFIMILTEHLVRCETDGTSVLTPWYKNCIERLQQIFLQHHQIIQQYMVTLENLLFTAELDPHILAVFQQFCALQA
# [5] = biological target: T4, ERCC3 C342 (P19447) (Homo sapiens, UniProt P19447); test: Competitive isoTOP-ABPP, cell lysates; format: binding; conditions: for isoTOP-ABPP ratio (reactivity profile), P19447_C342: 500 μm in-vitro ramos_231; for isoTOP-ABPP reactivity ratio, P19447_C342: 500 μm, in-vitro_ramos_231
# T4 sequence (P19447 1-782): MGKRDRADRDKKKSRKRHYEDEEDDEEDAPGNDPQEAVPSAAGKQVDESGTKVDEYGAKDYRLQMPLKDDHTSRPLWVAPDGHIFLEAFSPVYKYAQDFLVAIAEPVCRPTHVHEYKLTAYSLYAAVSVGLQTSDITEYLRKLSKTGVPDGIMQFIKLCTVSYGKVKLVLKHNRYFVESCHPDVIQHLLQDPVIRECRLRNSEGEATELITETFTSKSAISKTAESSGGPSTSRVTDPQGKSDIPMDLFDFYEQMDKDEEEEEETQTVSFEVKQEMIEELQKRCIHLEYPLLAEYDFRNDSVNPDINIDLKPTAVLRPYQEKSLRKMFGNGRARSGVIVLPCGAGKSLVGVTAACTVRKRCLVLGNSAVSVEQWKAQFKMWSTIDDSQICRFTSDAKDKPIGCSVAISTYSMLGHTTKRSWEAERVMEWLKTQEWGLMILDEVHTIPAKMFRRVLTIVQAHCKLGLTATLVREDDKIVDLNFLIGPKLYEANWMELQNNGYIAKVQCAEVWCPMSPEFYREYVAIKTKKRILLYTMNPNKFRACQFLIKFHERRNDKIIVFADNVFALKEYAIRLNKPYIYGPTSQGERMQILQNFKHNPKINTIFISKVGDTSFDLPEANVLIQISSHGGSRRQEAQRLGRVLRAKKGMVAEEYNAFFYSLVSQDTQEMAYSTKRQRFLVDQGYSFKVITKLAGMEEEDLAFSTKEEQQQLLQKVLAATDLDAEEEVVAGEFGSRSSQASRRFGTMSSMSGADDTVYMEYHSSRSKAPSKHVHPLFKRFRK
# Experimental: TEV digests were pressure loaded onto a 250 μm (inner diameter) fused silica capillary column packed with C18 resin (Aqua 5 μm, Phenomenex). The samples were analyzed by multidimensional liquid chromatography tandem mass spectrometry (MudPIT), using an LTQ-Velos Orbitrap mass spectrometer (Thermo Scientific) coupled to an Agilent 1200-series quaternary pump. […] One full MS (MS1) scan (400-1800 m/z) was followed by 30 MS2 scans (ITMS) of the nth most abundant ions.
# The ratios of heavy/light for each unique peptide (DMSO/compound treated; isoTOP-ABPP ratios, R values) were quantified with in-house CIMAGE software, using default parameters (3 ms s per peak and signal to noise threshold 2.5). Site-specific engagement of electrophilic fragments was assessed by blockade of IA-alkyne probe labeling. […] Ratios for unique peptide entries were calculated for each experiment; overlapping peptides with the same modified cysteine (e.g. different charge states, MudPIT chromatographic steps or tryptic termini) were grouped together and the median ratio was reported as the final ratio (R). The peptide ratios reported by CIMAGE were further filtered to ensure the removal or correction of low quality ratios in each individual dataset. The quality filters applied were the following: removal of half tryptic peptides; for ratios with high standard deviations from the median (90% of the median or above) the lowest ratio was taken instead of the median; removal of peptides with R=20 and only a single ms2 event triggered during the elution of the parent ion; manual annotation of all the peptides with ratios of 20, removing any peptides with low-quality elution profiles that remained after the previous curation steps. Proteome reactivity values for individual fragments were computed as the percentage of the total quantified cysteine-containing peptides with R values≥4 (defined as liganded cysteines) for each replicate experiment and the final proteome reactivity value was calculated as the mean for all replicate experiments for each fragment from both MDA-MB-231 and Ramos cellular proteomes.
# Biological replicates of the same compound and cell-line were averaged if the standard deviation was below 60% of the mean; otherwise the lowest value of the ratio set was taken. For peptides with multiple modified cysteines, the cysteine with the highest number of quantification events was kept and the remaining, redundant peptides were discarded. […] Although the majority (>75% of fragments) were profiled in at least two biological replicates, some data from single replicate MS experiments were included.
# [6] = biological target: T5, cysteines in MDA-MB-231 and Ramos cells (Homo sapiens, UniProt P04183); test: Competitive isoTOP-ABPP in situ (fragment-treated cells); format: cell-based; conditions: 200 μM, insitu
# T5 sequence (P04183 1-234): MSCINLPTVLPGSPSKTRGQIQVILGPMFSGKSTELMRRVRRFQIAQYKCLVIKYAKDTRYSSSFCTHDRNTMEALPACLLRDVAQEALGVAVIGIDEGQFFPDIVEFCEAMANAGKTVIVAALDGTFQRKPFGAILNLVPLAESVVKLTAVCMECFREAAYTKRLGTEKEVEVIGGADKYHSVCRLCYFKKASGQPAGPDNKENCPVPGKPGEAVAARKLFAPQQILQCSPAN
Compound,"isoTOP-ABPP ratio (reactivity profile), P24752_C413 ([1]; 500 μm in-vitro ramos)","isoTOP-ABPP ratio (reactivity profile), P24752_C413 ([1]; 500 μm in-vitro ramos_231)",isoTOP-ABPP ratio Q9UMS0_C213 [2]; 231,isoTOP-ABPP ratio P12268_C140 [3]; 231,isoTOP-ABPP ratio P12268_C331 [3]; 231,isoTOP-ABPP ratio Q09161_C44 [4]; 231,"isoTOP-ABPP ratio (reactivity profile), P19447_C342 [5]",isoTOP-ABPP ratio Q9UMS0_C213 ([2]; ramos),isoTOP-ABPP ratio P12268_C140 ([3]; ramos),isoTOP-ABPP ratio P12268_C331 ([3]; ramos),isoTOP-ABPP ratio Q09161_C44 ([4]; ramos),isoTOP-ABPP ratio P04183_C66 ([6]; ramos),isoTOP-ABPP ratio P04183_C230 ([6]; ramos),"isoTOP-ABPP reactivity ratio, P24752_C413 ([1]; 500 μm, in-vitro_ramos)","isoTOP-ABPP reactivity ratio, P24752_C413 ([1]; 500 μm, in-vitro_ramos_231)",isoTOP-ABPP ratio P04183_C66 [6]; 231,isoTOP-ABPP ratio P04183_C230 [6]; 231,"isoTOP-ABPP reactivity ratio, P19447_C342 [5]","isoTOP-ABPP reactivity profile ratio, P24752_C413 ([1]; 500 μm, in-vitro_ramos_231)"
CC(C)CCOCCNC(=O)CCl [compound 27],1.3,0.9 and 1.1,1.3,0.5,0.7,0.8,0.8 and 1.1,–,–,–,–,–,–,–,–,–,–,–,–
O=C(CCl)N1CCN(CC(=O)N2CCOCC2)CC1 [compound 29],0.7,1.3,–,–,–,–,0.8,2.0,1.6,1.3,1.1,1.6,1.2,–,–,–,–,–,–
C=CC(=O)N(Cc1cccnc1)c1cc(C(F)(F)F)cc(C(F)(F)F)c1 [compound 31],–,–,1.5,0.6,1.0,0.6,–,–,1.0,1.1,–,–,2.1,1.0,1.6,0.7,–,–,–
C=CC(=O)Nc1cc(F)c(N2CCN(C(=O)OC(C)(C)C)CC2)c(F)c1 [compound 38],–,–,3.5,1.2,1.3,1.2,–,–,–,–,–,–,–,20.0,1.1,–,2.8,1.3,–
Cc1ccc(C=C(C#N)C(=O)NCCN2CCOCC2)cc1 [compound 41],–,–,0.9,0.7,0.8,0.8,–,–,–,–,–,–,–,0.9,0.8,0.4,0.6,1.1,–
CC1CCc2ccccc2N1C(=O)CCl (stereo not shown) [compound 45],–,–,7.1,1.9,4.1,2.5,–,–,–,–,–,–,–,–,–,–,2.0,–,20.0
